Assays:
[1] = system: spontaneous gastric acid secretion; assay: inhibition of spontaneous gastric acid secretion in cannulated rats; type: in vivo, Male albino Sprague Dawley rats
Method: Male albino Sprague Dawley rats (200-300 g), purchased from Canadian Breeding Laboratories, were employed. Two gastric cannulas were implanted surgically in each rat as described by L. E. Borella and F. Herr, Gastroenterology, 61, 345 (1971). The rats were used two to three weeks after the operation at a time when their food intake and weight gain were similar to the food intake and weight gain of unoperated litter mates. Before testing, the rats were deprived of food for 18 hours, but they had available a solution of 0.2% sodium chloride in 5% glucose for drinking ad libitum. Prior to each experiment, the plugs of the stomach cannulas of each rat were removed and the debris present in the stomach was flushed out with tepid saline passed through the cannulas. Thereafter, the lumen of the stomach was continuously perfused with saline introduced into the stomach through the forestomach cannula at a rate of 0.8-1.2 ml/min. The stomach perfusate flowing out of the antrum cannula was collected in 60 minutes intervals and the total acid in each collection was titrated with 0.05N sodium hydroxide employing phenol red as an indicator. After a period of acclimatization of about 60 to 90 minutes, the acid output values were recorded. On the basis of the hourly acid output, the rats were divided into equal groups so that the average acid output of all groups was similar. Saline (vehicle) or saline suspensions or solutions of the test compounds were administered intragastrically (i.g.) through the forestomach cannula, after having closed the antral cannula. During the one hour absorption period, the stomachs of the rats were not perfused. After the absorption period, perfusion of the stomachs was resumed, and the perfusates were collected hourly for three hours. The average post-treatment hourly acid outputs of the test compound groups were compared to that of the saline group and the percent inhibition of acid output was calculated. Multiple statistical comparisons between groups was done using Dunnet's t test, C. W. Dunnet, Journal of American Statistical Association, 50, 1096 (1955).

[2] = system: gastric lesions induced by absolute alcohol; assay: gastric lesions induced in rats by absolute alcohol; type: in vivo, male albino rats (Sprague-Dawley); settings: i.g., 30 minutes before absolute ethanol
Method: More explicitly exemplified, the beneficial effects were evaluated as follows: food was withheld from male albino rats (180-220 g, Sprague-Dawley, Canadian Breeding Laboratories) for 18 to 19 hours, but water was freely available. Test compounds were administered intragastrically (i.g.) by stomach gavage, 30 minutes before absolute ethanol. The absolute ethanol (one milliliter) also was administered by gavage. One hour after the alcohol treatment, the rats were killed and their stomachs removed for observation. Clotted blood was removed from the surface of the mucosa, and the macroscopic lesions counted. The average scores of the treatment groups were compared individually to that of the control group and percent inhibitions of lesion formation calculated. The data was analyzed statistically according to Dunnett's t test for multiple comparisons between groups.
The results obtained when 2-cyano-3-(methylthio)-3-[[3-pyridinyl)-methyl]thio]-2-propenoic acid methyl ester, described in example 1, was tested according to the previous method is as follows.

[3] = 50 mg/kg/i.g., tested as hydrochloric acid addition salt

Structure (SMILES): COC(=O)C(C#N)=C(SCc1cccnc1)SCc1cccnc1 [1 (R^2 = 3-pyridinylmethyl thio), 2-cyano-3,3-bis[[(3-pyridinyl)methyl]thio]-2-propenoic acid methyl ester]
- Percent Inhibition of Acid Output ([1]; 25 mg/kg/i.g.): 38%

Structure (SMILES): COC(=O)C(C#N)=C(SC)SCc1cccnc1 [Example 1, 2-Cyano-3-(methylthio)-3-[[(3-pyridinyl)methyl]thio]-2-propenoic Acid Methyl Ester]
- Percent Inhibition of Acid Output ([1]; 25 mg/kg/i.g.): 85%
- Gastric Ulcers Formed, % Inhibition ([2]; 5 mg/kg): 61%
- Gastric Ulcers Formed, Score (mean ± S.E.) ([2]; 5 mg/kg): 6.7 ± 2.2
- Gastric Ulcers Formed, % Inhibition ([2]; 10 mg/kg): 100%
- Gastric Ulcers Formed, Score (mean ± S.E.) ([2]; 10 mg/kg): 0

Structure (SMILES): COC(=O)C(C#N)=C(SC)SCc1ccc[n+]([O-])c1 [Example 2, 2-Cyano-3-(methylthio)-3-[[(3-pyridinyl)methyl]thio]-2-propenoic Acid Methyl Ester N-oxide]
- Percent Inhibition of Acid Output ([1]; 25 mg/kg/i.g.): 60%

Structure (SMILES): COC(=O)C(C#N)=C(SC)Sc1ccnnc1C [Example 3, 2-cyano-3-[(3-methyl-4-pyridazinyl)thio]-3-(methylthio)-2-propenoic acid methyl ester]
- Percent Inhibition of Acid Output [1, 3]: 90%

Structure (SMILES): COC(=O)C(C#N)=C(SC)SCc1cnccn1 [Example 4, 2-cyano-3-(methylthio)-3-[[(3-pyrazinyl)methyl]-thio]-2-propenoic acid methyl ester]
- Percent Inhibition of Acid Output [1, 3]: 88%

Structure (SMILES): CSC(SCc1cccnc1)=C(C#N)C(N)=O [Example 12, 2-Cyano-3-(methylthio)-3-[[(3-pyridinyl)methyl]thio]-2-propenamide]
- Percent Inhibition of Acid Output ([1]; 25 mg/kg/i.g.): 27%

Structure (SMILES): CSC(SCc1ccncc1)=C(C#N)C(N)=O [Example 13, 2-Cyano-3-(methylthio)-3-[[(4-pyridinyl)methyl]thio]-2-propenamide]
- Percent Inhibition of Acid Output ([1]; 50 mg/kg/i.g.): 59%

— patent publication US4542140A, “Pyridinyl substituted ketenemercaptal derivatives” (American Home Products Corporation, priority 1983, dated 1985)
